# Measured values taken from patent US20250144067A1, “PERSONALIZED STARVATION THERAPY FOR CANCER” (Faeth Therapeutics, Inc., priority 2021, published 2025).
# Structures can show the parent of a compound that is named as a salt. Where two headings read alike, the source gives them in different places. Numbered stars: 1 amine (or outer) side, 2 acyl side, 3 side chain; on linkers, the order of the positions; unused ones are H or OH. Bridge positions count the residues as written; N and C are the ends. Square brackets hold non-standard residues; d marks the D form. Peptide text beside a SMILES is read from it. * marks the point of attachment. pTerphenylCO(4''-OnC5H11) = CCCCCOc1ccc(-c2ccc(-c3ccc(C(=O)*)cc3)cc2)cc1; Orn(4R-OH,5R-OH) = O=C([C@H](C[C@@H](O)[C@@H](O)N[*:3])N[*:1])[*:2]; hTyr(3S-OH,4S-OH) = N[C@H](C(=O)O)[C@H](O)[C@@H](O)c1ccc(O)cc1; Pro(3S-OH,4S-Me) = C[C@H]1CN[C@H](C(=O)O)[C@H]1O; Hyp = O=C(O)[C@@H]1C[C@@H](O)CN1
# Columns and labels:
# [1] = system: NCI-H292 lung cancer cells; test: FDA drug screening, complete media vs cholesterol-free media without statin (TABLE 1); assay type: cell-based, human
# [2] = system: NCI-H292 lung cancer cells; test: FDA drug screening, complete media vs cholesterol-free media with simvastatin (TABLE 2); assay type: cell-based, human
# [3] = Complete minus Cholesterol-free, >0 enhanced anti-cancer activity, about 0 neutral, <0 antagonist
# [4] = NCI-H292 cells, cholesterol-free media without statin, FDA drug library screen
# [5] = NCI-H292 cells, complete media, FDA drug library screen
# [6] = NCI-H292 cells, drug in cholesterol-free media with simvastatin 0.04 μM
# [7] = NCI-H292 cells, drug in complete media
# [8] = complete media vs cholesterol-free media + simvastatin (0.04 μM), >0 enhanced anti-cancer activity, about 0 neutral, <0 antagonist
# [9] = NCI-H292 cells, FDA drug library screen, cholesterol-free media with simvastatin 0.04 μM
# [10] = NCI-H292 cells, FDA drug library screen, complete media
# [11] = complete media minus cholesterol-free media + simvastatin, >0 enhanced anti-cancer activity, about 0 neutral, <0 antagonist
# [12] = Complete minus Cholesterol-free, […]
# [13] = complete media vs cholesterol-free media + simvastatin (0.04 μM), […]
# [14] = Complete minus Cholesterol-free, greater than 0 enhanced anti-cancer activity, about 0 neutral, below 0 antagonists
# [15] = NCI-H292 cells in cholesterol-free media without statin
# [16] = NCI-H292 cells in complete media
# [17] = NCI-H292 cells, cholesterol-free media with simvastatin 0.04 μM, cell growth value in FDA drug screen
# [18] = NCI-H292 cells, complete media, cell growth value in FDA drug screen
# [19] = NCI-H292 cells, FDA drug library screen, cholesterol-free media without statin
# [20] = NCI-H292 cells, cholesterol-free media without statin
# [21] = NCI-H292 cells, FDA library drug in cholesterol-free media with simvastatin 0.04 μM
# [22] = NCI-H292 cells, FDA library drug in complete media
# [23] = Complete minus Cholesterol-free, greater than 0 enhanced anti-cancer activity, about 0 neutral, below 0 antagonist
# [24] = NCI-H292 cells, cholesterol-free media with simvastatin 0.04 μM, FDA drug library screen (TABLE 2)
# [25] = NCI-H292 cells, complete media, FDA drug library screen (TABLE 2)
# [26] = complete media minus cholesterol-free media + simvastatin (0.04 μM), >0 enhanced anti-cancer activity, about 0 neutral, <0 antagonist
# [27] = complete vs cholesterol-free media, >0 enhanced anti-cancer activity, about 0 neutral, <0 antagonist
compound,measurement,setting,value
C=CC1=C(C(=O)O)N2C(=O)[C@@H](NC(=O)/C(=N\OCC(=O)O)c3csc(N)n3)[C@H]2SC1 [Cefixime],Difference,[1]; [3],0.05
same,Cholesterol-free,[1]; [4],1.137
same,Complete,[1]; [5],1.188
same,Cholesterol-free media + simvastatin (0.04 μM),[2]; [6],1.663
same,Complete Media,[2]; [7],1.418
same,Difference,[2]; [8],−0.24
CC1=C(C)C(=O)C(C(CCCCCC(=O)O)c2ccccc2)=C(C)C1=O (centres unmarked) [Seratrodast],Difference,[1]; [3],0.00
same,Cholesterol-free,[1]; [4],0.9876
same,Complete,[1]; [5],0.9904
same,Cholesterol-free media + simvastatin (0.04 μM),[2]; [9],0.9305
same,Complete Media,[2]; [10],1.335
same,Difference,[2]; [11],0.40
C[C@H](Oc1cc(-c2cnn(C3CCNCC3)c2)cnc1N)c1c(Cl)ccc(F)c1Cl [(S)-Crizotinib],Difference,[1]; [12],0.02
same,Cholesterol-free,[1]; [4],1.253
same,Complete,[1]; [5],1.275
same,Cholesterol-free media + simvastatin (0.04 μM),[2]; [9],1.094
same,Complete Media,[2]; [10],0.9518
same,Difference,[2]; [13],−0.14
CC(C(=O)O)c1ccc(CC2CCCC2=O)cc1 (centres unmarked) [Loxoprofen],Difference,[1]; [14],−0.88
same,Cholesterol-free,[1]; [15],1.914
same,Complete,[1]; [16],1.039
same,Cholesterol-free media + simvastatin (0.04 μM),[2]; [17],0.9936
same,Complete Media,[2]; [18],1.115
same,Difference,[2]; [11],0.12
Bromocriptine (mesylate),Difference,[1]; [12],−0.12
same,Cholesterol-free,[1]; [19],0.9359
same,Complete,[1]; [10],0.8127
same,Cholesterol-free media + simvastatin (0.04 μM),[2]; [6],0.9355
same,Complete Media,[2]; [7],0.7343
same,Difference,[2]; [13],−0.20
OCC(O)CN1CCN(c2ccccc2)CC1 (centres unmarked) [Dropropizine],Difference,[1]; [14],−0.56
same,Cholesterol-free,[1]; [15],1.559
same,Complete,[1]; [16],1
same,Cholesterol-free media + simvastatin (0.04 μM),[2]; [6],1.188
same,Complete Media,[2]; [7],0.9581
same,Difference,[2]; [8],−0.23
CC(C)(C)CC(C)(C)c1ccc(OCCOCC[N+](C)(C)Cc2ccccc2)cc1 [Benzethonium chloride],Cholesterol-free,[1],0.07505
same,Complete,[1],0.2197
same,Difference,[1],0.14
same,Cholesterol-free media + simvastatin (0.04 μM),[2],0.6785
same,Complete Media,[2],0.4348
same,Difference,[2],−0.24
CCCCc1nc(Cl)c(CO)n1Cc1ccc(-c2ccccc2-c2nn[nH]n2)cc1 [Losartan],Difference,[1]; [3],−0.28
same,Cholesterol-free,[1]; [20],1.549
same,Complete,"[1]; NCI-H292 cells, complete media",1.271
same,Cholesterol-free media + simvastatin (0.04 μM),[2]; [21],1.37
same,Complete Media,[2]; [22],0.8741
same,Difference,[2]; [8],−0.50
CN1CCN2c3ncccc3Cc3ccccc3C2C1 (centres unmarked) [Mirtazapine],Difference,[1]; [23],−0.17
same,Cholesterol-free,[1]; [19],1.176
same,Complete,[1]; [10],1.005
same,Cholesterol-free media + simvastatin (0.04 μM),[2]; [24],0.9802
same,Complete Media,[2]; [25],0.914
same,Difference,[2]; [26],−0.07
C[N+](C)(C)CCOP(=O)([O-])OC[C@H](O)CO [sn-Glycero-3-phosphocholine],Difference,[1]; [23],−0.10
same,Cholesterol-free,[1]; [19],0.9108
same,Complete,[1]; [10],0.8124
same,Cholesterol-free media + simvastatin (0.04 μM),[2]; [21],0.9593
same,Complete Media,[2]; [22],0.5999
same,Difference,[2]; [8],−0.36
CNCc1cc(-c2ccccc2F)n(S(=O)(=O)c2cccnc2)c1 [Vonoprazan],Difference,[1]; [23],−0.07
same,Cholesterol-free,[1]; [19],1.105
same,Complete,[1]; [10],1.031
same,Cholesterol-free media + simvastatin (0.04 μM),[2]; [21],1.249
same,Complete Media,[2]; [22],0.8473
same,Difference,[2]; [8],−0.40
"CCCCCOc1ccc(-c2ccc(-c3ccc(C(=O)N[C@H]4C[C@@H](O)[C@@H](O)NC(=O)[C@@H]5[C@@H](O)[C@@H](C)CN5C(=O)[C@H]([C@@H](C)O)NC(=O)[C@H]([C@H](O)[C@@H](O)c5ccc(O)cc5)NC(=O)[C@@H]5C[C@@H](O)CN5C(=O)[C@H]([C@@H](C)O)NC4=O)cc3)cc2)cc1 [Anidulafungin] ({pTerphenylCO(4''-OnC5H11)}-[Orn(4R-OH,5R-OH)]T[Hyp][hTyr(3S-OH,4S-OH)]T[Pro(3S-OH,4S-Me)]; lactam 1-C)",Difference,[1]; [12],−0.23
same,Cholesterol-free,[1]; [20],1.481
same,Complete,"[1]; NCI-H292 cells, complete media",1.247
same,Cholesterol-free media + simvastatin (0.04 μM),[2]; [9],1.251
same,Difference,"[2]; complete media minus cholesterol-free media + simvastatin (0.04 μM), […]",−1.03
Cn1c(=O)c2c(ncn2CCO)n(C)c1=O [Etofylline],Cholesterol-free,[1]; [4],1.261
same,Complete,[1]; [5],1.355
same,Difference,[1]; [27],0.09
same,Cholesterol-free media + simvastatin (0.04 μM),[2]; [9],0.885
same,Complete Media,[2]; [10],1.042
same,Difference,[2]; [11],0.16
CCCN[C@@H]1CCc2nc(N)sc2C1 [Dexpramipexole (dihydrochloride)],Cholesterol-free,[1]; [20],0.9915
same,Complete,"[1]; NCI-H292 cells, complete media",0.5799
same,Difference,"[1]; complete vs cholesterol-free media, greater than 0 enhanced anti-cancer activity, about 0 neutral, below 0 antagonists",−0.41
same,Cholesterol-free media + simvastatin (0.04 μM),[2]; [24],1.099
same,Complete Media,[2]; [25],1.11
same,Difference,[2]; [26],0.01
C[N+](C)(C)CCO.O=C([O-])C(O)C(O)C(=O)O (centres unmarked) [Choline (bitartrate)],Cholesterol-free,[1],1.646
same,Complete,[1],0.8603
same,Difference,[1],−0.79
same,Cholesterol-free media + simvastatin (0.04 μM),[2],1.34
same,Complete Media,[2],1.054
same,Difference,[2],−0.29
N#Cc1ccc2[nH]cc(CCCCN3CCN(c4ccc5oc(C(=O)O)cc5c4)CC3)c2c1 [Vilazodone carboxylic acid],Difference,[1]; [3],−0.19
same,Cholesterol-free,[1]; [20],0.9582
same,Complete,"[1]; NCI-H292 cells, complete media",0.7696
same,Cholesterol-free media + simvastatin (0.04 μM),[2]; [24],1.218
same,Complete Media,[2]; [25],1.232
same,Difference,[2]; [26],0.01
CC(=O)Oc1c(C)c(C)c2c(c1C)CCC(C)(CCC[C@H](C)CCC[C@H](C)CCCC(C)C)O2 (stereo partly drawn) [D-α-Tocopherol acetate],Cholesterol-free,[1]; [4],0.7729
same,Complete,[1]; [5],1.233
same,Difference,[1]; [27],0.46
same,Cholesterol-free media + simvastatin (0.04 μM),[2]; [17],0.8974
same,Complete Media,[2]; [18],1.003
same,Difference,[2]; [11],0.11
CC(C)[N+](C)(CCOC(=O)C1c2ccccc2Oc2ccccc21)C(C)C.[Br-] [Propantheline (bromide)],Difference,[1]; [3],−0.02
same,Cholesterol-free,[1]; [4],1.311
same,Complete,[1]; [5],1.294
same,Cholesterol-free media + simvastatin (0.04 μM),[2]; [17],1.413
same,Complete Media,[2]; [18],1.449
same,Difference,[2]; [11],0.04
CC(C)N(CCC(C(N)=O)(c1ccccc1)c1ccccn1)C(C)C (centres unmarked) [Disopyramide],Difference,[1]; [23],−0.15
same,Cholesterol-free,[1]; [19],1.106
same,Complete,[1]; [10],0.9575
same,Cholesterol-free media + simvastatin (0.04 μM),[2]; [24],1.301
same,Complete Media,[2]; [25],1.257
same,Difference,[2]; [26],−0.04
CC1(C)C[C@@H]1C(=O)N/C(=C\CCCCSC[C@H](N)C(=O)O)C(=O)O [Cilastatin],Cholesterol-free,[1],1.185
same,Complete,[1],0.8515
same,Difference,[1],−0.33
same,Cholesterol-free media + simvastatin (0.04 μM),[2],1.258
same,Complete Media,[2],0.85
same,Difference,[2],−0.41
CCn1cc(C(=O)O)c(=O)c2cc(F)c(N3CCNCC3)cc21 [Norfloxacin],Cholesterol-free,[1]; [4],1.043
same,Complete,[1]; [5],1.123
same,Difference,[1]; [27],0.08
same,Cholesterol-free media + simvastatin (0.04 μM),[2]; [21],1.696
same,Complete Media,[2]; [22],1.396
same,Difference,[2]; [8],−0.30
CC(C)(C)C(=O)OCOP(=O)(COCCn1cnc2c(N)ncnc21)OCOC(=O)C(C)(C)C [Adefovir dipivoxil],Difference,[1]; [3],−0.04
same,Cholesterol-free,[1]; [4],0.1811
same,Complete,[1]; [5],0.1375
same,Cholesterol-free media + simvastatin (0.04 μM),[2]; [24],0.2485
same,Complete Media,[2]; [25],0.1986
same,Difference,[2]; [26],−0.05
